From US11987564B2, “PTPRD inhibitors and uses thereof” (United States Government as represented by the Department …, priority 2021, dated 2024)
pIC50: −log10 of the molar value.

What was measured:
PTPRS = PTPRS (Homo sapiens, UniProt Q13332); assay: pNPP hydrolysis by recombinant PTPRS phosphatase; format: biochemical
Source text: (§1) Human […] ([…]-pY-[…]) phosphopeptide (Pierce/ThermoFisher) were synthesized.

recombinant PTPRD = recombinant PTPRD (Homo sapiens, UniProt P23468); assay: pNPP hydrolysis by recombinant PTPRD phosphatase
Procedure: (§2) Phosphatase assays: Data for each assay type (3 wells/experimental condition, read using a Spectromax plate reader) was plotted vs time, and results derived from the slopes of linear regions were reported from triplicate independent experiments.
(§3) For assays of compound ligands that were likely pseudo-irreversible, 18 min preincubations were also added. For work determining the effect of flavonoids on pNPP hydrolysis, a 96 well half-area plate was prepared by first filling each well to be tested with 18 μL of 50 μM pNPP and 25 uL of running buffer, and 2 μL of DMSO containing the desired concentration of flavonoid and/or peptide. PTPRD phosphatase was diluted 1:50 in a dilution buffer.

PTPRJ = target: T1, PTPRJ (Homo sapiens, UniProt Q12913); assay: pNPP hydrolysis by PTPRJ phosphatase; format: biochemical
T1 construct: purchased
T1 sequence (Q12913 36-1337): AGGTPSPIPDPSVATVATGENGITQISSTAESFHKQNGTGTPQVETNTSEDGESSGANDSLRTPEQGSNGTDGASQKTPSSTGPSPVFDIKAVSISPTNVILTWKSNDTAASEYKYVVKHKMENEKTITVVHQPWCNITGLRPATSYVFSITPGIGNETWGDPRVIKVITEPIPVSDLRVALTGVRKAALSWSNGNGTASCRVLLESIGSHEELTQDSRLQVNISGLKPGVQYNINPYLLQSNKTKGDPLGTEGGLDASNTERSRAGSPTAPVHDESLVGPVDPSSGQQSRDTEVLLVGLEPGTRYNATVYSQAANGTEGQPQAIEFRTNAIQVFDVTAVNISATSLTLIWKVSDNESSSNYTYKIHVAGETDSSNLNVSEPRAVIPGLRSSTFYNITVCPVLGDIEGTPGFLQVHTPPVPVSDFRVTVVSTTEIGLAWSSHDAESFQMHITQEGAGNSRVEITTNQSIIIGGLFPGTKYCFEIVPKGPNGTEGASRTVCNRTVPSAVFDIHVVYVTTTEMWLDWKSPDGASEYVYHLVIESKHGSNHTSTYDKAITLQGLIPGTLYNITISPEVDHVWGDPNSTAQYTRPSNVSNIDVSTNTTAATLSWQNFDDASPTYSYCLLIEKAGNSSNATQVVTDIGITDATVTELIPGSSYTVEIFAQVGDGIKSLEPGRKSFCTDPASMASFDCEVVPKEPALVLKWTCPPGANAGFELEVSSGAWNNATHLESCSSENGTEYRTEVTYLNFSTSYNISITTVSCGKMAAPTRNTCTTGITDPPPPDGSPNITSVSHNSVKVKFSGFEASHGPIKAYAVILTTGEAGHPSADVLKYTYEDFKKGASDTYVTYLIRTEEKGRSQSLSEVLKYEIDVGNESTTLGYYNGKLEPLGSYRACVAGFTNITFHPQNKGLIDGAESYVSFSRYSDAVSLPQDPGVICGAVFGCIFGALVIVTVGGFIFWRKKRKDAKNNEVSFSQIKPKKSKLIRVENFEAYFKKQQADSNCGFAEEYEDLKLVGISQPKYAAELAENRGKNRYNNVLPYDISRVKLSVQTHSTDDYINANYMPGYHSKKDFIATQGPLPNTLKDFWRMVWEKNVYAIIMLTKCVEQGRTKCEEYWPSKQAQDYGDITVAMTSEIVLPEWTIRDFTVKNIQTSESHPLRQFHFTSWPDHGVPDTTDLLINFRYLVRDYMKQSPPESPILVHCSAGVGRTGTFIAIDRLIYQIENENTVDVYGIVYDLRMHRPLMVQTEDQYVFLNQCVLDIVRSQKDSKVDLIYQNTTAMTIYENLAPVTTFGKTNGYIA
Source text: as §1

PTPN1 (PTP1B) = target: T2, PTPN1 (PTP1B) (Homo sapiens, UniProt P18031); assay: pNPP hydrolysis by PTPN1 (PTP1B) phosphatase; format: biochemical; details: untitled table after Table 4; mean, SEM in wrapped line
T2 construct: purchased
T2 sequence (P18031 1-435): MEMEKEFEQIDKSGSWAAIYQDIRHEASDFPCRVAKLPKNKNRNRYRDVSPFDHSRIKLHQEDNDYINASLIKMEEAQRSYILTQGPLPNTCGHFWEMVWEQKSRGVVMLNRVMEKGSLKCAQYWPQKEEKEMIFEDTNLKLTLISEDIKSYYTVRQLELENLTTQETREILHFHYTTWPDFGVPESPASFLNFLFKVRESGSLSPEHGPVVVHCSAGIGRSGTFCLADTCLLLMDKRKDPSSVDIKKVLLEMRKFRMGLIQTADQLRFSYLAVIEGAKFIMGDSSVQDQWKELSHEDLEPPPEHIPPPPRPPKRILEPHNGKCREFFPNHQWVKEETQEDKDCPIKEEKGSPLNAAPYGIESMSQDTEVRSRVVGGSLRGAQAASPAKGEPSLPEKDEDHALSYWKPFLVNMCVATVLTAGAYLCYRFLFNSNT

PTPRF = PTPRF (Homo sapiens, UniProt P10586); assay: pNPP hydrolysis by recombinant PTPRF phosphatase
Procedure: as §2, §3

[1] = test system: wildtype C57BL/6J or PTPRD knockout mice
[2] = Table 4, mean (SEM) of three independent experiments, * = instability, no valid triplicate
[3] = untitled table after Table 4, mean, SEM in wrapped line
[4] = PTPRD IC50, Table 4, mean (SEM) of three independent experiments, * = instability, no valid triplicate
[5] = PTPRD IC50, untitled table after Table 4, mean, SEM in wrapped line, compounds with PTPRD IC50 <5 μM
[6] = PTPRF IC50, Table 4, mean (SEM) of three independent experiments, * = instability, no valid triplicate
[7] = PTPRF IC50, untitled table after Table 4, mean, SEM in wrapped line

recombinant PTPRD, sequence (P23468 21-1912): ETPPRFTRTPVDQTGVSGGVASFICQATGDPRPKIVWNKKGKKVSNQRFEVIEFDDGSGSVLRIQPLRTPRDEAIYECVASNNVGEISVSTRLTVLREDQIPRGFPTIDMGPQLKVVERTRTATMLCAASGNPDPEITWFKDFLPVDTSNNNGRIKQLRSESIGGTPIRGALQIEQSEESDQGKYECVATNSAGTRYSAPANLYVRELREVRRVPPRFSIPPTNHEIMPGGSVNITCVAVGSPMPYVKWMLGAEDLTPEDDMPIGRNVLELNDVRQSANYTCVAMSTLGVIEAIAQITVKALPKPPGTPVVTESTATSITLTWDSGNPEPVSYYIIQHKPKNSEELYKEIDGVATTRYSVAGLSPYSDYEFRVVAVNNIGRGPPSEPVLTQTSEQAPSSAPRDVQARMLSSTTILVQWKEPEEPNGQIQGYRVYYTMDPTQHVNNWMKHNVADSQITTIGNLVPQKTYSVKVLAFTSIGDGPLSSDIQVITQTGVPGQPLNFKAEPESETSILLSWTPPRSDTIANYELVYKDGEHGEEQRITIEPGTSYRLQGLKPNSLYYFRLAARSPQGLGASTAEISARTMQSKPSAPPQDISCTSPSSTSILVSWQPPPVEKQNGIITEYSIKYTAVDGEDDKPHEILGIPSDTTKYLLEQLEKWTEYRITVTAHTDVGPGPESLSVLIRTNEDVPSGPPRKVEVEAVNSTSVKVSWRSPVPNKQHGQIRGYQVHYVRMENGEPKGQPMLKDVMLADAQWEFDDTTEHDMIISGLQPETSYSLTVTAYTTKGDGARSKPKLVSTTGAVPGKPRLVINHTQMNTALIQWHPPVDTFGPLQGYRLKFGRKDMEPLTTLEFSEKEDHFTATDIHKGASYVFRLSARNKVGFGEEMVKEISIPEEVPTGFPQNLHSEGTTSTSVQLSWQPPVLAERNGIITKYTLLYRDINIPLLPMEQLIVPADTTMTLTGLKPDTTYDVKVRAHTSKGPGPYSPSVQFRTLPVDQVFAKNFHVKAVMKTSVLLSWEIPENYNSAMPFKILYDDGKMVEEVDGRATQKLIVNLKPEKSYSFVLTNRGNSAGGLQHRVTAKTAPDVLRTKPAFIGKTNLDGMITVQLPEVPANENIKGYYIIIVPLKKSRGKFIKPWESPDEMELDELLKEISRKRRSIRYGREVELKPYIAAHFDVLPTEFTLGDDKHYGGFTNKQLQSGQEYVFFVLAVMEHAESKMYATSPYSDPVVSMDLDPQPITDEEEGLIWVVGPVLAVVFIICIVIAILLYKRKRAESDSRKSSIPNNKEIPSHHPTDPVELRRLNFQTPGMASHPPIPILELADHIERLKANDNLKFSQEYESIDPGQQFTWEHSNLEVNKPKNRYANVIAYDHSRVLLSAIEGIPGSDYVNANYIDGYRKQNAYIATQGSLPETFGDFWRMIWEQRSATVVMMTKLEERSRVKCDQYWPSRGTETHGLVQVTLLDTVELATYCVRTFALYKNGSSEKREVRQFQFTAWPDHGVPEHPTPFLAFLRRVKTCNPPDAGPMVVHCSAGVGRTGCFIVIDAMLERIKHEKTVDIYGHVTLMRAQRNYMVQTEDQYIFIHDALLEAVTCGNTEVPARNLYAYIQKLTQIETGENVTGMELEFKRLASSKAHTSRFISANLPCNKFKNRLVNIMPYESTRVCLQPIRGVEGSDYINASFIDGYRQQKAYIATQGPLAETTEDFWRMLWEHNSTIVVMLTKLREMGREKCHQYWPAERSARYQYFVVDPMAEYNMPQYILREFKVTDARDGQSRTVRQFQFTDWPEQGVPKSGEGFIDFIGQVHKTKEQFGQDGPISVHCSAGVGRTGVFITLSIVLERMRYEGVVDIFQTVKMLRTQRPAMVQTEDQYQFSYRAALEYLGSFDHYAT
PTPRF, sequence (P10586 30-1907, species assumed): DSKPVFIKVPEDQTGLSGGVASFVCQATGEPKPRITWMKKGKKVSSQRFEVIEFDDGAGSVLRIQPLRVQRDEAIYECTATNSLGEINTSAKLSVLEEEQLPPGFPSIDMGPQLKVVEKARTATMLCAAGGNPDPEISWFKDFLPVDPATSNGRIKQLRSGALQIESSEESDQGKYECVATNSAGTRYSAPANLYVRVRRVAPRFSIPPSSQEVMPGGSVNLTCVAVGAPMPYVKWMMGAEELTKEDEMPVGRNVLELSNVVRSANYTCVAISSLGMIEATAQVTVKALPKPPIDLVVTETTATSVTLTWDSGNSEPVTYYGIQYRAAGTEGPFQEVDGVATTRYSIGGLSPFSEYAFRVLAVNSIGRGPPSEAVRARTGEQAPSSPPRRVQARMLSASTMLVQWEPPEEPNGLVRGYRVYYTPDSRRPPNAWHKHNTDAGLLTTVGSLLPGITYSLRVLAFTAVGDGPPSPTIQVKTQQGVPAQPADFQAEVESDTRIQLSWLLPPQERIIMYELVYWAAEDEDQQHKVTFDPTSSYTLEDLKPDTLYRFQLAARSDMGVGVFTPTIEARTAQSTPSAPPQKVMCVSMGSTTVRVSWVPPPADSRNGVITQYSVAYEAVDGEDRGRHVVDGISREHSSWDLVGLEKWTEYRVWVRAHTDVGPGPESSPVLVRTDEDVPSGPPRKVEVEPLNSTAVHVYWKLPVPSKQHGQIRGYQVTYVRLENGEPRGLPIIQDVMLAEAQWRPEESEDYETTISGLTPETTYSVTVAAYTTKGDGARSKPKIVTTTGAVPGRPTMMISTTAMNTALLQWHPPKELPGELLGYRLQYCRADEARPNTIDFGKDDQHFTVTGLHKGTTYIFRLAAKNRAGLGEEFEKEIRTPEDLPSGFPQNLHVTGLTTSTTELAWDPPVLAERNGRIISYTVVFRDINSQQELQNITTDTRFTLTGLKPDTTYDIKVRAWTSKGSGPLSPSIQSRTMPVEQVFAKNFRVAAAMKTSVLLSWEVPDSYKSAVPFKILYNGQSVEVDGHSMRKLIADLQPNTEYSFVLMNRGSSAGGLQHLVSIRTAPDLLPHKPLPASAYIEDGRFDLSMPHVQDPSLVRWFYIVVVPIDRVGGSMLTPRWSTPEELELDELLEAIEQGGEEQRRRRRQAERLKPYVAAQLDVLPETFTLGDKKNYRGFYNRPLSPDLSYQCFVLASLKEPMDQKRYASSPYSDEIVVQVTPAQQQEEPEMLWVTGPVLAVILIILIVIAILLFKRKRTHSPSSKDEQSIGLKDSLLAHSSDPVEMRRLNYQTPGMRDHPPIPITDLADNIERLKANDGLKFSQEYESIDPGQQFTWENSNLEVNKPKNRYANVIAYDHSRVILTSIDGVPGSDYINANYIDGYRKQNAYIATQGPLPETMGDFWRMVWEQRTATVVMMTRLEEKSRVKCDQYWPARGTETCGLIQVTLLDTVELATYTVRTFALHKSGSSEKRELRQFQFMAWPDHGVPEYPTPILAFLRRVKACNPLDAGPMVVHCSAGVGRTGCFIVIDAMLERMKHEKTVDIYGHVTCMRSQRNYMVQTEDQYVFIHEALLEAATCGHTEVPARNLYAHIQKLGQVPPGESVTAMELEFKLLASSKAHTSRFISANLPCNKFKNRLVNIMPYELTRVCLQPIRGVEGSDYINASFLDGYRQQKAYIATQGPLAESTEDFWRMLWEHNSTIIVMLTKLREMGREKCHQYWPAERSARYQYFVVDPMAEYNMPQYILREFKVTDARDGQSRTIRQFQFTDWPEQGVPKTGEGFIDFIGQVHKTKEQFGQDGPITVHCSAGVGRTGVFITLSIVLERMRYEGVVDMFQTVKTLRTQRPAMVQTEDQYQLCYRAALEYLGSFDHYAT

SMILES	pIC50 (PTPRS; [2])	pIC50 (PTPRS; [3])	pIC50 (recombinant PTPRD; [4])	pIC50 (recombinant PTPRD; [5])	pIC50 (PTPRJ; [2])	pIC50 (PTPRJ; [3])	pIC50 (PTPN1 (PTP1B))	pIC50 (PTPRF; [6])	pIC50 (PTPRF; [7])	death (or euthanasia) prior to day 3 ([1]; 400 or 200 mg/kg gavage)	no observed adverse effect level (NOAEL) ([1]; mouse, single dose p.o., based on weight changes, gross pathology, histopathology, cage behaviors) [mg/kg]
COc1c(OCCCCc2ccc(O)cc2O)cc2c(c1C=O)CC(O)OC2=O (stereo not shown) [Compound 55]	5.64	5.64	5.35	5.35	4.26	4.26	3.50	5.17	5.17		
COc1c(OCCC(C)C)cc2c(c1C=O)CC(O)OC2=O (stereo not shown) [Compound 58, 3-Hydroxy-7-(isopentyloxy)-6-methoxy-1-oxoisochromane-5-carbaldehyde]	5.56	5.56	5.55	5.55	4.28	4.28	3.92	5.41	5.41		
COc1c(OCC2CCCC2)cc2c(c1C=O)CC(O)OC2=O (stereo not shown) [Compound 66, 7-Cyclopentylmethoxy-3-hydroxy-6-methoxy-1-oxo-isochroman-5-carbaldehyde]	6.21	6.21			4.53	4.53	3.92	5.76	5.76	none	200
COc1cccc(COc2cc3c(c(C=O)c2OC)CC(O)OC3=O)c1 (stereo not shown) [Compound 31, 3-Hydroxy-6-methoxy-7-((3-methoxybenzyl)oxy)-1-oxoisochromane-5-carbaldehyde]	4.89	5.49	5.39	5.25		4.20	3.69		5.24		
